# pIC50: −log10 of the molar value. Where “and” joins values, the source holds several entries; their conditions need not be identical. Identical values can stand only once. Calls of active or inactive are those of the source. The rule behind the calls is not given here.
# What was measured:
# [1] = target: T1, Histone deacetylase 1/2/3/6 (Homo sapiens, UniProt Q13547+O15379+Q9UBN7+Q92769); test: Inhibition of HDAC1/2/3/6 in human A2780 cells using Boc-Lys(epsilon-Ac)-AMC as substrate preincubated for 18 hrs followed by substrate addition measured after 3 hrs by fluorescence assay; format: cell-based
# T1 sequence (O15379 whole entry, looked up, one chain of several): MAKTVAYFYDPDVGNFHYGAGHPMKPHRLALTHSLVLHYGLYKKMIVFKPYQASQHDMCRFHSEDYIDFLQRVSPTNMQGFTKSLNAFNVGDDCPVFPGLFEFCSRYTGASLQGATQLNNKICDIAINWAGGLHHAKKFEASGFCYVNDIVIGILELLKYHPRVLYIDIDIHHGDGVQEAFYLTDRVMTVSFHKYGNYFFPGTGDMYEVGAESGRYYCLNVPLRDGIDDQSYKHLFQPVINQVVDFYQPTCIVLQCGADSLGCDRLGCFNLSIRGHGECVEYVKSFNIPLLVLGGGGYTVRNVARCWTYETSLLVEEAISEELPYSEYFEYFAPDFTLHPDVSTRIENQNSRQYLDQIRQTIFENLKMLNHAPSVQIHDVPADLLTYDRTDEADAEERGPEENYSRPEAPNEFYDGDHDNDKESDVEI
# T1 sequence (Q13547 whole entry, looked up, one chain of several): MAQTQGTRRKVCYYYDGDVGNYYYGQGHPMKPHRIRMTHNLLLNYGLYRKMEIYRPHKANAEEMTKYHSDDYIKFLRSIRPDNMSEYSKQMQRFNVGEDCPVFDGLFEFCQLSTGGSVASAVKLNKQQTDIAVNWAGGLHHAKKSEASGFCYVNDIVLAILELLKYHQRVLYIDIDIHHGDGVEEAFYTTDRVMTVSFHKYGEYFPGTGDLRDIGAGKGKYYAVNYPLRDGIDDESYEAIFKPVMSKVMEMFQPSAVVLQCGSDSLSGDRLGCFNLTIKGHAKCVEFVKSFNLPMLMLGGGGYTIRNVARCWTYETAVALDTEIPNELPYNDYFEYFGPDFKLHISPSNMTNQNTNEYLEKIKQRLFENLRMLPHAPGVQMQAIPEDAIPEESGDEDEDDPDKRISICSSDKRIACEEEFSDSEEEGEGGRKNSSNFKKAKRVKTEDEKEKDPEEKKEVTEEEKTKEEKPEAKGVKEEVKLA
# T1 sequence (Q92769 whole entry, looked up, one chain of several): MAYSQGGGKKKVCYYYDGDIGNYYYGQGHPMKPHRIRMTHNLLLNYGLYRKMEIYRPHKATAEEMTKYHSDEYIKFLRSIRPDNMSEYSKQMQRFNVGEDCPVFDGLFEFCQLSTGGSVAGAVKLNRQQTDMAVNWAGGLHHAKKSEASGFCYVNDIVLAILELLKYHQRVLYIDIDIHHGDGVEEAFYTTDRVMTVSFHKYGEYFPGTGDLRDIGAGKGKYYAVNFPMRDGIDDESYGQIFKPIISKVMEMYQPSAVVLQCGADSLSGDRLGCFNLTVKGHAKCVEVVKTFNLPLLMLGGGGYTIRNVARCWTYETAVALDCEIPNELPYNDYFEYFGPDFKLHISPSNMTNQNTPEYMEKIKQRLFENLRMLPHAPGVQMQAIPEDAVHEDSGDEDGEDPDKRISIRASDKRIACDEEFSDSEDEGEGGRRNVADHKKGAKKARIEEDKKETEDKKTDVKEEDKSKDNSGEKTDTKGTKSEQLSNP
# [2] = target: T1, Histone deacetylase 1/2/3/6; test: Inhibition of HDAC1/2/3/6 in human A2780cisR cells using Boc-Lys(epsilon-Ac)-AMC as substrate preincubated for 18 hrs followed by substrate addition measured after 3 hrs by fluorescence assay; format: cell-based
# [3] = target: T1, Histone deacetylase 1/2/3/6; test: Inhibition of HDAC1/2/3/6 in human Cal27 cells using Boc-Lys(epsilon-Ac)-AMC as substrate preincubated for 18 hrs followed by substrate addition measured after 3 hrs by fluorescence assay; format: cell-based
# A2780cisR = test: Cytotoxicity against human A2780cisR cells assessed as cell survival after 72 hrs by MTT assay; format: functional, cell-based
# A2780 = test: Cytotoxicity against human A2780 cells assessed as cell survival after 72 hrs by MTT assay; format: functional, cell-based; settings: A2780, 72 h
# CAL-27 [4] = test: Cytotoxicity against human CAL27 cells assessed as cell survival after 72 hrs by MTT assay; format: functional, cell-based; settings: CAL-27, 72 h
# Histone deacetylase 1 = Histone deacetylase 1 (Homo sapiens, UniProt Q13547); test: Inhibition of C-terminal FLAG/His-tagged recombinant human HDAC1 expressed in baculovirus infected Sf9 insect cells using Z-(Ac)Lys-AMC as substrate measured after 90 mins by fluorescence assay
# Sequence of Histone deacetylase 1 (Q13547 whole entry): as the sequence (Q13547 whole entry, looked up, one chain of several) above
# [5] = target: T2, Protein deacetylase HDAC6 (Homo sapiens, UniProt Q9UBN7); test: Inhibition of N-terminal GST-tagged recombinant human HDAC6 expressed in baculovirus infected Sf9 insect cells using Z-(Ac)Lys-AMC as substrate measured after 90 mins by fluorescence assay
# T2 sequence (Q9UBN7 whole entry): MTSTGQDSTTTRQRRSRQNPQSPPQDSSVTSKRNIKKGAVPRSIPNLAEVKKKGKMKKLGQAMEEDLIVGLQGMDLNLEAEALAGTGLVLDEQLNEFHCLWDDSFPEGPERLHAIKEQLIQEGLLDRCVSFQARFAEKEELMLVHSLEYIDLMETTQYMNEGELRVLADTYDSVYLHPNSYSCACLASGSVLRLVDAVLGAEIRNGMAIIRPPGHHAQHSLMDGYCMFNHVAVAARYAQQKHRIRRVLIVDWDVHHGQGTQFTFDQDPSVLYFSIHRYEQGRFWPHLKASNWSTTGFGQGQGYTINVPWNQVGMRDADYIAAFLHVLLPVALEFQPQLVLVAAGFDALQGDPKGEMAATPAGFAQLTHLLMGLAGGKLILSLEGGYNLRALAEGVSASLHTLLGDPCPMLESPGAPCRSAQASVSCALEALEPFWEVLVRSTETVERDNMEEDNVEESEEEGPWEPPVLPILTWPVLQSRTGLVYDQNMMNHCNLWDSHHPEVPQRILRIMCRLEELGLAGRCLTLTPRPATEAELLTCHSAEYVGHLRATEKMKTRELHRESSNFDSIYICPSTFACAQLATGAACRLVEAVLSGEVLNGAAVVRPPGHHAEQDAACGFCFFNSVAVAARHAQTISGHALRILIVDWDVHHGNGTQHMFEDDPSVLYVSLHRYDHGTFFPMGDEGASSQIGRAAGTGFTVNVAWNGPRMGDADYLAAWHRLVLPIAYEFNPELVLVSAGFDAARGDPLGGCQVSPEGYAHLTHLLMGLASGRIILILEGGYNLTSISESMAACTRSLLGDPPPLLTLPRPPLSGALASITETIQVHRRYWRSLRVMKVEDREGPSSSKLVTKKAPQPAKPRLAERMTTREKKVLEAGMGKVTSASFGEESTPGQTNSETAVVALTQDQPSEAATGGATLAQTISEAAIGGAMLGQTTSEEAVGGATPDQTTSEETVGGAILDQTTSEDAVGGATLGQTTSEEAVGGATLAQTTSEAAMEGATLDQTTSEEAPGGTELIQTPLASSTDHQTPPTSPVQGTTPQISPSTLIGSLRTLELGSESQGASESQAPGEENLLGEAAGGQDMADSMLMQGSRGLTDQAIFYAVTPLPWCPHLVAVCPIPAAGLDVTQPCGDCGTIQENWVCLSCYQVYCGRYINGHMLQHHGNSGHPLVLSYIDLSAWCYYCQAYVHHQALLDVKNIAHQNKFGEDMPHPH
# [6] = target: Histone deacetylase 3/Nuclear receptor corepressor 2 (HDAC3/NCoR2) (Homo sapiens, UniProt O15379); test: Inhibition of full length human recombinant C-terminal His-tagged HDAC3/NcoR2 expressed in baculovirus infected Sf9 insect cells using Boc-Lys(epsilon-Ac)-AMC as substrate measured after 90 mins by fluorescence assay
# Sequence of Histone deacetylase 3/Nuclear receptor corepressor 2 (HDAC3/NCoR2) (O15379 whole entry): as the sequence (O15379 whole entry, looked up, one chain of several) above
# Sequence of Histone deacetylase 3/Nuclear receptor corepressor 2 (HDAC3/NCoR2) (Q9Y618 whole entry, further chain): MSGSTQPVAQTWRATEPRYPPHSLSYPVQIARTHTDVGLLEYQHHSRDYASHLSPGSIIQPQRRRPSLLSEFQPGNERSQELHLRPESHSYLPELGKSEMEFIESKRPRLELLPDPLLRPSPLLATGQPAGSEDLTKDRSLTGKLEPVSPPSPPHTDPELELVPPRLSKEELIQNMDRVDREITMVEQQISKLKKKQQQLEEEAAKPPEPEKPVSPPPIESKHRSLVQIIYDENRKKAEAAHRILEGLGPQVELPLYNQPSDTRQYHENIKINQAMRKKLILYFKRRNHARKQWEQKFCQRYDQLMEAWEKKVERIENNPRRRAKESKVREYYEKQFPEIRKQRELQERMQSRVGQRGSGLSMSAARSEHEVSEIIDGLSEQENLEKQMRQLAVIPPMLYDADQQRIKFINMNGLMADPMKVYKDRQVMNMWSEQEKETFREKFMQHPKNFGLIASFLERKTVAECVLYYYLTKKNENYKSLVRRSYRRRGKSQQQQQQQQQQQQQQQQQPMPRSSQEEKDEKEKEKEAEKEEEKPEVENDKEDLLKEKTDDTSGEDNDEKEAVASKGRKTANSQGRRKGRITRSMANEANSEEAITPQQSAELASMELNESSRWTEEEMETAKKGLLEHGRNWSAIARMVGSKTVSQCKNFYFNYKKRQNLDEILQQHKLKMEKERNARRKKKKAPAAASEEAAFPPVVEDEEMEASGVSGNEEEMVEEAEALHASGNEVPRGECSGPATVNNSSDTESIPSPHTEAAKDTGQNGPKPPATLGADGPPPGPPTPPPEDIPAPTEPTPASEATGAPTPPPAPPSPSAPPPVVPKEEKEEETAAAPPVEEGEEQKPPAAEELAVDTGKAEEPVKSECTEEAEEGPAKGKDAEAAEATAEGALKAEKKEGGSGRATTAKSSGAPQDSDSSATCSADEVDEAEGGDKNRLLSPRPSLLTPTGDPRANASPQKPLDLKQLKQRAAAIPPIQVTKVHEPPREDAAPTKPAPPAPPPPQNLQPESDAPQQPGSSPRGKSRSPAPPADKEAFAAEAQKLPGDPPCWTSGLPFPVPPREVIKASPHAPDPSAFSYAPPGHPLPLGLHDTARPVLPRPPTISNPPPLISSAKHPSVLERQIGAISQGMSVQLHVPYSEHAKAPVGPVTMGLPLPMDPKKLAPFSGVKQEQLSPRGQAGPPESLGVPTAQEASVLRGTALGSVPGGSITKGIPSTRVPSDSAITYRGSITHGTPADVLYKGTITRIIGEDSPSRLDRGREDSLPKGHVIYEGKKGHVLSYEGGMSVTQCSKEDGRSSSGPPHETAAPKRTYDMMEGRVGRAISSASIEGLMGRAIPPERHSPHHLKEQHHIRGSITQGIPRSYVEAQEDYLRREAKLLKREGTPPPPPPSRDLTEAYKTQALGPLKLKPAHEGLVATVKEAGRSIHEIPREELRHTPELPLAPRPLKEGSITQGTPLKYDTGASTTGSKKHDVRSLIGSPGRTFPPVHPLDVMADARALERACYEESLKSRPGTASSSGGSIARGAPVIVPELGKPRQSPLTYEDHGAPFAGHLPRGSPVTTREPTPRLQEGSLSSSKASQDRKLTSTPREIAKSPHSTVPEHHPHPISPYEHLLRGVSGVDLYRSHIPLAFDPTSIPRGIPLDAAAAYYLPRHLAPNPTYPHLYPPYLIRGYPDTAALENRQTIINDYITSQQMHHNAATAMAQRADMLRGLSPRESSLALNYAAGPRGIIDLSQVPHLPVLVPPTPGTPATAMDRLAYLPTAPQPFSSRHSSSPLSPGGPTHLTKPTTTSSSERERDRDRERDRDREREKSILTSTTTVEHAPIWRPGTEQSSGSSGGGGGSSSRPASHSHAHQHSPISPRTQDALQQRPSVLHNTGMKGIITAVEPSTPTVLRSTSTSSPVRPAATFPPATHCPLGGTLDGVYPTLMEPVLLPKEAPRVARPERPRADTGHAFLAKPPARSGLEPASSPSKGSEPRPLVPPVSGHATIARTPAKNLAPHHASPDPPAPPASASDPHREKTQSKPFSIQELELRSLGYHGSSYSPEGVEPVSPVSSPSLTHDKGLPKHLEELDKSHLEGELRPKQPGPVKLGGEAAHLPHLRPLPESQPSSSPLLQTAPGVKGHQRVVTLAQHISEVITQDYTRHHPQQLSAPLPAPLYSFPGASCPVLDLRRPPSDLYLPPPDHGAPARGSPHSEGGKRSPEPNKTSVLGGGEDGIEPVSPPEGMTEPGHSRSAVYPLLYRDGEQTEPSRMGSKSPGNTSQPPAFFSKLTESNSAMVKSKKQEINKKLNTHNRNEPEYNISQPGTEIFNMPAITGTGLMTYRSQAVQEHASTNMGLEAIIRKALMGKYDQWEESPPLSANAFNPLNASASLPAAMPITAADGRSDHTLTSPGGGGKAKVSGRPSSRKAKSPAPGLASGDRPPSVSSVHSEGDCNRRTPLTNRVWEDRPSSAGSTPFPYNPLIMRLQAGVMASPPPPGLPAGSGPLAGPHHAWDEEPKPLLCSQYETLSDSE
# Histone deacetylase 2 = Histone deacetylase 2 (Homo sapiens, UniProt Q92769); test: Inhibition of full length human recombinant C-terminal FLAG-tagged HDAC2 expressed in baculovirus infected Sf9 insect cells using Boc-Lys(epsilon-Ac)-AMC as substrate measured after 90 mins by fluorescence assay; format: cell-based
# Sequence of Histone deacetylase 2 (Q92769 whole entry): as the sequence (Q92769 whole entry, looked up, one chain of several) above
# Histone deacetylase 8 = target: T3, Histone deacetylase 8 (Homo sapiens, UniProt Q9BY41); test: Inhibition of human recombinant HDAC8 expressed in Escherichia coli using Z-L-Lys(epsilon-trifluoroacetyl)-AMC as substrate measured after 90 mins by fluorescence assay
# T3 sequence (Q9BY41 whole entry): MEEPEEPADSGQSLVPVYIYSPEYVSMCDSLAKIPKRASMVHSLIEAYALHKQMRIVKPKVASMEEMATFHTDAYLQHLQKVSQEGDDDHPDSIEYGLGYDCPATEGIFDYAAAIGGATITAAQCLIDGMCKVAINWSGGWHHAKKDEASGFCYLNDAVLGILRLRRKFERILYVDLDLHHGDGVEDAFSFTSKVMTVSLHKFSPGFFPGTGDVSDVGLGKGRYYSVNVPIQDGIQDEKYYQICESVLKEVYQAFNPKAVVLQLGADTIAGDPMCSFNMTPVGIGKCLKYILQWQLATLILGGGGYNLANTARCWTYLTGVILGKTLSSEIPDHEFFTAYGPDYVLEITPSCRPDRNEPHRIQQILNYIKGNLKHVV
# [7] = Apparent permeability in human Caco2 cells; format: ADME, cell-based, Caco-2; settings: caco-2
# [8] = Apparent permeability in MDCK cells; format: ADME, cell-based, Canis lupus familiaris; settings: dog
# [9] = target: T1, Histone deacetylase 1/2/3/6; test: Inhibition of HDAC1/2/3/6 in human Cal27 cells assessed as potentiation of cisplatin-induced apoptosis at 250 to 500 nM preincubated for 48 hrs followed by cisplatin addition by flow cytomertry assay; format: cell-based
# [10] = target: T1, Histone deacetylase 1/2/3/6; test: Inhibition of HDAC1/2/3/6 in human Cal27CisR cells assessed as potentiation of cisplatin-induced apoptosis at 250 to 500 nM preincubated for 48 hrs followed by cisplatin addition by flow cytomertry assay; format: cell-based
# CAL-27 [11] = test: Induction of apoptosis in human CAL27 cells at 250 to 500 nM incubated for 48 hrs by flow cytometry assay; format: cell-based; settings: cal-27, 48 h, 0.5 µM
# [12] = Induction of apoptosis in human Cal27CisR cells at 250 to 500 nM incubated for 48 hrs by flow cytometry assay; format: cell-based; settings: 0.5 µM
# [13] = target: T1, Histone deacetylase 1/2/3/6; test: Inhibition of HDAC1/2/3/6 in human Cal27CisR cells using Boc-Lys(epsilon-Ac)-AMC as substrate preincubated for 18 hrs followed by substrate addition measured after 3 hrs by fluorescence assay; format: cell-based
# [14] = Cytotoxicity against human Cal27CisR cells assessed as cell survival after 72 hrs by MTT assay; format: functional, cell-based
# [15] = target: T4, Protein deacetylase HDAC6 (Homo sapiens) (UniProt Q9UBN7); test: Inhibition of HDAC6 in human Cal27 cells assessed as increase in acetylation of alpha-tubulin at 10 uM after 24 hrs by Western blot method; format: cell-based
# T4 sequence (whole entry): T2 sequence (Q9UBN7 whole entry)
# [16] = target: T4, Protein deacetylase HDAC6 (Homo sapiens); test: Inhibition of HDAC6 in human Cal27CisR cells assessed as increase in acetylation of alpha-tubulin at 10 uM after 24 hrs by Western blot method; format: cell-based
# [17] = target: T5, Histone deacetylase 1/2/3 (Homo sapiens) (UniProt Q13547+O15379+Q92769); test: Inhibition of HDAC1/2/3 in human Cal27CisR cells assessed as increase in acetylation of histone H3 at 10 uM after 24 hrs by Western blot method; format: cell-based
# [18] = target: T5, Histone deacetylase 1/2/3 (Homo sapiens); test: Inhibition of HDAC1/2/3 in human Cal27 cells assessed as increase in acetylation of histone H3 at 10 uM after 24 hrs by Western blot method; format: cell-based
# [19] = target: T1, Histone deacetylase 1/2/3/6; test: Inhibition of HDAC1/2/3/6 in human CAL27 cells assessed as potentiation of cisplatin-induced cytotoxicity preincubated for 48 hrs followed by cisplatin addition measured after 72 hrs by MTT assay relative to control; format: cell-based
# [20] = target: T1, Histone deacetylase 1/2/3/6; test: Inhibition of HDAC1/2/3/6 in human Cal27CisR cells assessed as potentiation of cisplatin-induced cytotoxicity preincubated for 48 hrs followed by cisplatin addition measured after 72 hrs by MTT assay relative to control; format: cell-based
smiles,measurement,setting,value
CN(C)c1ccc(C(=O)N(CCCCCC(=O)NO)CC(=O)NCc2ccccc2)cc1,IC50,[1],0.48 µM
same,IC50,[2],0.32 µM
same,IC50,[3],0.27 µM
same,pIC50,A2780cisR,5.79
same,pIC50,A2780,6.33
same,pIC50,CAL-27 [4],6.36
same,pIC50,Histone deacetylase 1,7.60
same,pIC50,[5],6.55
same,pIC50,[6],8.19
same,pIC50,Histone deacetylase 2,7.18
same,pIC50,Histone deacetylase 8,5.56
same,Papp,[7],82 nm/s and 200 nm/s
same,Papp,"[8]; MDCK, read-out: Papp",7.3 ×10⁻⁶ cm/s
same,Papp,[8]; mdck,10.6 ×10⁻⁶ cm/s
same,inhibition,[9],Active
same,inhibition,[10],Active
same,Activity,CAL-27 [11],Non-Toxic
same,Activity,[12],Non-Toxic
same,IC50,[13],0.35 µM
same,pIC50,[14],5.95
same,inhibition,[15],Active
same,inhibition,[16],Active
same,inhibition,[17],Active
same,inhibition,[18],Active
same,inhibition,[19],Dose-dependent effect
same,inhibition,[20],Dose-dependent effect

# From ChEMBL document CHEMBL4014348, “Design, Multicomponent Synthesis, and Anticancer Activity of a Focused Histone Deacetylase (HDAC) Inhibitor Library with Peptoid-Based Cap Groups” (J Med Chem, 2017)
